Data on 3 molecules can be found in patent US20070190060A1, “Passive targeting of cytotoxic agents” (Wyeth, priority 2004, published 2007).

Data set [1] deals with A431 epidermoid carcinoma xenografts. The data set can be described thus: Tumor growth inhibition, subcutaneous A431 xenografts. It is filed as in vivo, athymic nude mice. The settings on record: for average tumor size as % of the control tumors: intravenous, twenty-seven days following onset of therapy. As for the experimental part: (§1) Subcutaneous tumors of N87, LOVO, A431/Le^y, LS174T and L2987 were grown in athymic nude mice (Charles River, Wilmington, Mass.). Two-month-old female mice were injected with respectively 5×10^6 N87, LOVO, A431/Le^y or LS174T cells per mouse. L2987 cells were injected in male nude mice that were between 7 and 8 weeks old. To grow tumors, N87 cells had to be mixed (1:1, vol/vol) with […]® (Collaborative Biomedical Products, Belford, Mass.) prior to injection. Two perpendicular diameters of the tumor were measured by means of calipers at time intervals specified in the result section. The tumor volume was calculated according to the formula of Attia&Weiss: A^2×B×0.4. A and B are symbols for the smaller and the larger tumor diameter, respectively.
[…] Mice with xenografts of approximately 80 mm^3 were selected prior to treatment. The amounts of CalichDMH or conjugate given are expressed in calicheamicn equivalents.
Both T and C are determined at the same day following initiation of treatment.

The test system of the next data set is KB 8.5 xenografts. The data set is described as follows: Tumor growth inhibition, subcutaneous KB 8.5 xenografts. It is filed as in vivo, athymic nude mice. The following applies: 4.00 μg per dose, Q4D×3, 22 days after first dose.
The next data set deals with A431/Le^Y xenografts. The data set is described as follows: Tumor growth inhibition, subcutaneous A431/LeY xenografts. The class given is in vivo, athymic nude mice. As for the experimental part:
as §1, with “respectively. […]” for “respectively.”
As shown in Table 2 (tumor volume reduction of CD33-tumor xenografts following treatment (T) with hp67.6-AcBut-CalichDMH and expressed as a percentage of controls treated with vehicle (T/C %)), hp67.6-AcBut-CalichDMH inhibited tumor growth of human tumor xenografts with diverse histiotypic origin. […] This value is the average tumor volume of a group of mice that were treated with hp67.6-AcBut-CalichDMH (T) expressed as a percentage of the average tumor volume of a control group (C). Both T and C are determined at the same day following initiation of treatment. […]

The subject of the next data set is PC3MM2 xenografts. The data set can be described thus: Tumor growth inhibition, subcutaneous PC3MM2 xenografts. The class given is in vivo, athymic nude mice. The following applies: 4.00 μg per dose, Q4D×3, 29 days after first dose.
A further data set has as its system L2987 xenografts. The data set can be described thus: Tumor growth inhibition, subcutaneous L2987 xenografts. The class given is in vivo, athymic nude mice. The method, then:
as §1, with “respectively. The treatment schedules, dose and number of mice per group are specified in the result section and in the figure legends.” for “respectively.”
(§2) As shown in Table 2 (tumor volume reduction of CD33-tumor xenografts following treatment (T) with hp67.6-AcBut-CalichDMH and expressed as a percentage of controls treated with vehicle (T/C %)), hp67.6-AcBut-CalichDMH inhibited tumor growth of human tumor xenografts with diverse histiotypic origin. […] This value is the average tumor volume of a group of mice that were treated with hp67.6-AcBut-CalichDMH (T) expressed as a percentage of the average tumor volume of a control group (C). Both T and C are determined at the same day following initiation of treatment. The T/C-values in table II were derived from 27 independent experiments and were determined between 17 and 34 days after injection of the first dose of hp67.6-AcBut-CalichDMH. […] Significant inhibition was also observed when lower amounts of the conjugate were administered.

For another data set, the system named is PC14PE6 xenografts. The data set can be described thus: Tumor growth inhibition, subcutaneous PC14PE6 xenografts. It is filed as in vivo, athymic nude mice.
Data set [2] can be described thus: In vivo distribution of 125I-labeled conjugate in A431 tumor-bearing mice. Also on record: species or system female nude mice. As for the experimental part:
Gemtuzumab ozogamicin was labeled with ^125I using the Bolton-Hunter reagent (NEN, Boston, Mass.). A group of 30 tumor-bearing female nude mice were injected in the lateral tail vein with ^125I-labeled conjugate 20 μCi/[…]. The tumor weight at the time of injection was approximately 1 g. Groups of 5 mice were killed by CO2 inhalation at 2, 6, 24, 48, 72 and 96 h following the injection. The amount of γ radiation in the tissues as specified in FIG. 2 was determined at these time points. Biodistribution of the conjugate was expressed as a percentage of the injected dose per gram tissue (% ID/g) or as a percentage of the blood level at a given time point (% Blood). Steadily increasing concentrations of hp67.6-AcBut-CalichDMH were exclusively observed in tumor tissue. The doubling time of accumulation is 150 h for A431 tumors.
The kinetics of hp67.6-AcBut-CalichDMH in various mouse tissues and in CD33-negative A431-tumor xenografted tumor were compared. Following injection of 200 µg (20 μCi) ^125I labeled conjugate, the amount of radioactive label was measured in various tissues at 2, 6, 24, 48, 72 and 96 h (FIG. 2). The amount of radioactive material was expressed relative to the amount present in whole blood at the time of measurement (% Blood, Y1 axes in FIG. 2). Percent blood (% Blood) is given by the formula, 100×Bq per gram tissue/Bq per gram blood. In addition, the amount of radioactive material was also expressed relative to total amount of conjugate given (% ID/g, Y2 axes in FIG. 2). Only a marginal amount of 125I labeled conjugate is retained in the brain. […] The % Blood was on average 3.5%.

In another data set the test system is HT29 xenografts. The data set can be described thus: Tumor growth inhibition, subcutaneous HT29 xenografts. The class given is in vivo, athymic nude mice. The following applies: 4.00 μg per dose, Q4D×3, 33 days after first dose.
In the next data set the test system is MDAMB435/5T4 xenografts. The data set can be described thus: Tumor growth inhibition, subcutaneous MDAMB435/5T4 xenografts. The class given is in vivo, athymic nude mice.
The test system of the next data set is N87 xenografts. The data set is described as follows: Tumor growth inhibition, subcutaneous N87 xenografts. It is filed as in vivo, athymic nude mice. The method, then: as §1, with “respectively. The treatment schedules, dose and number of mice per group are specified in the result section and in the figure legends.” for “respectively.”
as §2

For the next data set, the system named is LOVO xenografts. The data set is described as follows: Tumor growth inhibition, subcutaneous LOVO xenografts. The following applies: for T/C (%): LOVO, 4.00 μg per dose, Q4D×3. The class given is in vivo, athymic nude mice. The method, then:
as §1, with “respectively. The treatment schedules, dose and number of mice per group are specified in the result section and in the figure legends.” for “respectively.”
as §2

The test system of the next data set is LNCaP xenografts. The data set is described as follows: Tumor growth inhibition, subcutaneous LNCaP xenografts. The class given is in vivo, athymic nude mice.
Setting [3] is: intraperitoneally Q4D×3, equivalent or higher doses than hp67.6-AcBut-CalichDMH (FIGS. 1B and 1C).
[4] abbreviates: intravenous administration, same dose, frequency and interval (Q4D×3).
The mark [5] stands for this setting: 2.00 μg per dose, 29 days after first dose.
[6] abbreviates: 4.00 μg per dose, Q4D×3, 29 days after first dose.
The mark [7] stands for this setting: 2.00 μg per dose, 30 days after first dose.
Where [8] appears, read: 4.00 μg per dose, Q4D×3, 30 days after first dose.
Setting [9] is: 1.00 μg per dose, 28 days after first dose.
The mark [10] stands for this setting: 2.00 μg per dose, 28 days after first dose.
Where [11] appears, read: 4.00 μg per dose, Q4D×3, 28 days after first dose.

“And” between values parts separate entries of the source, which are not always exact repeats. Equal values may be shown once. Bounds are passed on as bounds.

In the case of `CCN(C(C)=O)[C@H]1CO[C@@H](O[C@H]2[C@H](O[C@H]3C#C/C=C\C#C[C@]4(O)CC(=O)C(NC(=O)OC)=C3/C4=C\CSSC(C)(C)CC(=O)NN)O[C@H](C)[C@@H](NO[C@H]3C[C@H](O)[C@H](SC(=O)c4c(C)c(I)c(O[C@@H]5O[C@@H](C)[C@H](O)[C@@H](OC)[C@H]5O)c(OC)c4OC)[C@@H](C)O3)[C@@H]2O)C[C@@H]1OC` [CalichDMH, N-acetyl-γ-calicheamicin dimethyl hydrazide], the “tumor growth inhibition of A431 xenografts” value (“tumor growth inhibition” for short) is reported as “did not inhibit tumor growth” in data set [1] (setting [3]) and “did not yield significant tumor growth inhibition” in data set [1] (setting [4]).
In the case of “hp67.6-Amide-CalichDMA: hp67.6 linked to CalichDMA with the acid stabile Amide (4-mercapto-4-methyl-pentanoic acid) linker”, the “tumor growth inhibition” value in data set [1] (setting [3]) is listed as “did not inhibit tumor growth”; in [1] (setting [4]) it was “did not yield significant tumor growth inhibition”.
On to “hp67.6-AcBut-CalichDMH: antibody against CD33 (hp67.6) bound to N-acetyl gamma calicheamicin dimethyl hydrazide by the acid labile AcBut linker”, for which the “T/C (%)” value is recorded as 27% with KB 8.5 xenografts; 37% with A431/Le^Y xenografts (setting [5]); under 1% in the data set on A431/Le^Y xenografts (setting [6]); 33% in the data set on PC3MM2 xenografts; 146% in [1] (A431, 1.00 μg per dose, 27 days after first dose); 72% in data set [1] (A431, 2.00 μg per dose, 27 days after first dose). Besides, the “T/C (%)” value in data set [1] (A431, 4.00 μg per dose, Q4D×3, 27 days after first dose) was 21% and 35%; in [1] (A431, 4.00 μg per dose, Q4D×3, 28 days after first dose) it was 12%; with L2987 xenografts (0.75 μg per dose, 21 days after first dose), 33%; in the data set on L2987 xenografts (1.50 μg per dose, 21 days after first dose) it was 77%; with L2987 xenografts (setting [7]), 5%; with L2987 xenografts (3.00 μg per dose, 21 days after first dose) it was 5%. The “T/C (%)” value with L2987 xenografts (setting [8]) was determined as 1%; with L2987 xenografts (4.00 μg per dose, Q4D×3, 35 days after first dose) it was 1%; with PC14PE6 xenografts (1.00 μg per dose, 29 days after first dose), 52%; in the data set with PC14PE6 xenografts (2.00 μg per dose, 17 days after first dose) it was 59%; in the data set with PC14PE6 xenografts (setting [5]), 42%; with PC14PE6 xenografts (4.00 μg per dose, Q4D×3, 17 days after first dose) it was 27%. For the same molecule, the “T/C (%)” value turned out to be 15% in the data set with PC14PE6 xenografts (4.00 μg per dose, Q4D×3, 22 days after first dose); 14% with PC14PE6 xenografts (setting [6]); 36% in the data set on HT29 xenografts; 45% in the data set with MDAMB435/5T4 xenografts (setting [5]); 32% in the data set on MDAMB435/5T4 xenografts (setting [6]); 30% with MDAMB435/5T4 xenografts (4.00 μg per dose, Q4D×3, 34 days after first dose). For the same molecule, the “T/C (%)” value is reported as 55% in the data set on N87 xenografts (setting [9]); 41% in the data set on N87 xenografts (setting [10]); 54% with N87 xenografts (setting [7]); 19% in the data set with N87 xenografts (4.00 μg per dose, Q4D×3, 27 days after first dose); 60% in the data set with N87 xenografts (setting [11]); 48% with N87 xenografts (setting [8]). Moreover, the “T/C (%)” value was 39% with N87 xenografts (4.00 μg per dose, Q4D×3, 31 days after first dose); 39% and 42% in the data set with N87 xenografts (4.00 μg per dose, Q4D×3, 33 days after first dose); 80% in the data set with LOVO xenografts (25 days after first dose); 47% and 76% with LOVO xenografts (29 days after first dose); 102% in the data set with LNCaP xenografts (0.50 μg per dose, 28 days after first dose); 59% with LNCaP xenografts (setting [9]). The “T/C (%)” value in the data set on LNCaP xenografts (setting [10]) stood at 30%; in the data set on LNCaP xenografts (setting [5]) it was 34%; in the data set with LNCaP xenografts (setting [11]), 24%; with LNCaP xenografts (setting [6]), 7%. Besides, the “growth of A431 xenografts” value in [1] (3 doses of 4 μg, intraperitoneally Q4D×3, up to 27 days following treatment) is listed as “significantly (p=0.03) inhibited”. Besides, the “time xenografts remained significantly (p=0.004) smaller than the controls” value in data set [1] (A431, 2 μg/dose, intraperitoneally Q4D×3 (FIG. 1A)) came out at 21 days. Further, the “average tumor size as % of the control tumors” value in [1] (A431, 2 μg Q4D×3) came to 23%; in data set [1] (A431, 4 μg Q4D×3), 11%. In addition, in data set [1] (setting [4]), the “tumor growth inhibition” value is “Significant growth inhibition”. Also, in data set [2] (A431 tumor tissue, 2 to 96 h), the “% ID/g value in function of time, tumor tissue” value was “steady increase”. Further, the “doubling time of accumulation in tumor” value in data set [2] (A431 tumors, 125I-labeled conjugate, lateral tail vein) turned out to be 150 h. For the same molecule, the “% Blood (100×Bq per gram tissue/Bq per gram blood), brain, on average” value in data set [2] (brain, within 96 hours, 125I-labeled conjugate) amounted to 3.5%. Besides, the “time of highest % Blood-value” in data set [2] (heart, intestine and spleen, after injection, then steadily decreased) came out at 2 h. Moreover, the “time of peak of the % Blood-value” in [2] (liver and striated muscle) came to 48 h. In addition, the “% ID/g in function of time, all the other tissues examined” value in [2] (normal tissues, 2 to 96 h) is “decreased in function of time”. Besides, in [2] (skin), the “time after which % Blood-value reached a plateau” value amounted to 24 h. Also, in the data set with LOVO xenografts (LOVO colon carcinoma, 4 μg CalichDMH per mouse, intraperitoneally Q4D×3 (FIG. 5)), the “T/Cmin value (minimum T/C-value observed during an experiment)” value is given as “exceptionally high”.
